Data on one compound can be found in patent US6664241B2, “Water-soluble amide derivatives of polyene macrolides and preparation and uses thereof” (Micrologix Biotech Inc., priority 2000, dated 2003).

Molecules are shown by their SMILES. In brackets after ≈: the same amount, converted by molar mass.

The test system of data set [1] is C. albicans. Briefly: 7 day kidney bioburden evaluation in neutropenic mice challenged with C. albicans. Conditions: Candida albicans, ip, 168 h, intraperitoneally once daily for 7 days, 50% of animals with 2 log10 reduction in kidney CFU. Type of data set: in vivo, Swiss-Webster mice. The method, then: (§1) A variety of the compounds synthesized as described in Section 5, supra, were tested in various in vivo assays, as described below. The results of the various assays are provided in TABLE 3, presented at the end of this section. In all of the in vivo assays described, the test compounds, in the form of the aspartate salts, were formulated in an aqueous vehicle (5% mannitol in sterile water; OSMITROL, Baxter Healthcare, Deerfield, Ill.), followed by appropriate dilutions. The formulations were prepared fresh before dosing.
(§2) AmB and AME were also tested for comparison. For AmB, the commercially available FUNGIZONE (Bristol-Meyers Squibb Co.) was used. Reported values are based upon the weight of the AmB active ingredient, not on the basis of the weight of the FUNGIZONE powder. AME was formulated in OSMITROL as described for the test compounds.
Various polyene macrolide amide derivatives of the invention were evaluated for their protective effect when administered intraperitoneally once daily for 7 days to neutropenic mice challenged with live C. albicans.
Swiss-Webster mice (Simonsen Laboratories, Gilroy, Calif.) were made neutropenic by intravenous administration of 5-fluorouracil (150 mg/kg) on study day −1. On study day 0, all mice received by intravenous injection a single inoculum (0.2 mL) containing as estimated 5.0×10^4 CFU of C. albicans. The day of inoculation was designated as study day 0. Beginning the day after infection (on study day 1), mice were treated intraperitoneally with vehicle alone or formulated test compound, once daily for 7 consecutive days.
(§3) The mice were observed daily from study day 1 through study day 8 (1 day after the last dose). Mice found dead or euthanized in extremis were removed from the study without further processing. Surviving mice were euthanized by inhalation of CO2 on study day 8 and both kidneys from each mouse were removed. Each pair of removed kidneys was homogenized in 3 mL of ice-cold PBS containing 10% glycerol. A portion of each homogenate was used to determine log10 CFU per kidney using SDA plates (48 hours of incubation at 30° C.). Kidney log10 CFU data were analyzed using a t-test. The criterion for a statistically significant response was set at p<0.01.
(§4) For comparison, the results for AmB and AME are also provided. Efficacy was defined for individual animals as a greater than 2 log10 reduction in kidney CFU relative to the mean vehicle control value.

Data set [2] deals with C. albicans. Kind of data set: 5 day kidney bioburden evaluation in immunocompetent mice challenged with C. albicans. It is filed as in vivo, Swiss-Webster mice. Conditions: for effective in % of mice: greater than 2 log10 reduction in kidney CFU. The method, then: as §1, §2
Various polyene macrolide amide derivatives of the invention were evaluated for their protective effect when administered intraperitoneally once daily for 5 days to immunocompetent mice challenged with live C. albicans.
C. albicans was grown on Sabouraud dextrose agar (SDA) plates for 48 hr. Colonies were harvested and washed twice by centrifugation in phosphate-buffered saline (PBS). The washed pellets were resuspended in PBS and diluted to achieve the desired number of fungi per milliliter. A portion of the inoculum was plated on SDA plates to determine the colony-forming units (CFU) per milliliter.
Swiss-Webster mice (Simonsen Laboratories, Gilroy, Calif.) were administered by intravenous injection a single inoculum (0.2 mL) containing as estimated 2.0×10^5 CFU of C. albicans. The day of inoculation was designated as study day 0. Beginning three days after injection, mice were treated intraperitoneally with vehicle alone or formulated test compound once daily for 5 consecutive days.
as §3, with “day 0” for “day 1”, “day 10 (3 days” for “day 8 (1 day”, “day 10” for “day 8”
as §4

Data set [3] relates to C. albicans. Briefly: Minimum Inhibitory Concentrations (MICs) against C. albicans, NCCLS M27-A broth dilution. Type of data set: cell-based. Conditions: Candida albicans, read-out: MIC. The method, then:
For each compound synthesized, Minimum Inhibitory Concentrations (MICs) against C. albicans were determined as described in Reference Method for Broth Dilution Antifungal Susceptibility Testing of Yeasts, Approved Standard, NCCLS document M27-A (ISBN 1-56238-328-0), NCCLS, 940 West Valley Road, Suite 1400, Wayne, Pa. 19087, 1997.

Data set [4] is described as follows: Maximum non-lethal dose (NLD), single intravenous dose in mice. Type of data set: in vivo, Swiss-Webster male mice. Particulars: test compounds as aspartate salts in 5% mannitol, AmB as FUNGIZONE
The procedure, abridged:
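Groups of four male Swiss-Webster mice received one intravenous dose of aspartate salt in 5% mannitol/water, freshly prepared. Doses were raised or lowered after each round until the maximum non-lethal dose was found.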

The nature of data set [5]: Ascending single-dose nephrotoxicity study in rabbits. Type of data set: in vivo, Female New Zealand white rabbits. Conditions: female, New Zealand white, rabbit, in vivo, ascending single intravenous infusion doses, urine volume, BUN, creatinine, read-out: NOAEL acute rabbit. The method, then: as §1
AmB and AME were also tested for comparison. For AmB, the commercially available FUNGIZONE (Bristol-Meyers Squibb Co.) was used. […]
Various polyene macrolide amide derivatives of the invention were evaluated to determine the intravenous dose of administered compound that produces nephrotoxicity in rabbits. Nephrotoxicity was monitored by measuring urine volume and blood urine nitrogen (BUN) and creatinine. […]
Ascending single doses were administered by intravenous infusion into an ear vein at a rate of 0.6 mL/min. […] Body weights were recorded before each dose, as well as 2 days after the last dose. Blood samples were collected from the rabbits two days prior to the first dose (study day −2) and approximately 24 hr after each dose and analyzed for BUN and creatinine. […]

Broadly, the ED50 is the dose that gives a 50% effect, or the effect in half of the subjects. A word on the MIC: it is the lowest concentration that inhibits growth of the organism. As usually defined, the NOAEL is the highest dose or exposure tested at which no adverse effect was seen. Turning to `C[C@@H]1[C@H](O)[C@@H](C)/C=C/C=C/C=C/C=C/C=C/C=C/C=C/[C@H](O[C@@H]2O[C@H](C)[C@@H](O)[C@H](N)[C@@H]2O)C[C@@H]2O[C@](O)(C[C@@H](O)C[C@@H](O)[C@H](O)CC[C@@H](O)C[C@@H](O)CC(=O)O[C@H]1C)C[C@H](O)[C@H]2C(=O)O` [AMB, amphotericin B, reference compound], the ED50 in data set [1] was 0.3 mg/kg; in data set [2] (Candida albicans, ip, 120 h, intraperitoneally once daily for 5 days, immunocompetent mice, C. albicans, 50% of animals with 2 log10 reduction in kidney CFU, read-out: ED50 mice 5 day) it was 3 mg/kg; in data set [2] (intraperitoneally, 5 day kidney bioburden model, calculated) it was 3 mg/kg/day. The “effective in % of mice” value in data set [2] (2 mg/kg/day intraperitoneally) was found to be 20%; in data set [2] (4 mg/kg/day intraperitoneally), 60%; in data set [2] (8 mg/kg/day intraperitoneally), 100%; in data set [2] (16 mg/kg/day intraperitoneally) it was 78%. In addition, the MIC in data set [3] was in the range of 0.125 to 0.25 µg/mL (≈ 0.135 to 0.271 µM). Moreover, the NLD acute mice in data set [4] was found to be 1.5 mg/kg. Besides, the NOAEL in data set [5] was 0.375 mg/kg.
